Earlier results in patent US20250255875A1, “BIFUNCTIONAL CHIMERIC MOLECULES FOR LABELING OF KINASES WITH TARGET BINDING MOIETIES AND METHODS OF USE THEREOF” (The Brigham and Women's Hospital, Inc., priority 2022, published 2025).

Assays:
[1] = tested on: NF-…B Pathway
[2] = biological target: T1, Recombinant PK… (PKCζ) (Homo sapiens, UniProt Q05513)
T1 sequence (Q05513 1-592): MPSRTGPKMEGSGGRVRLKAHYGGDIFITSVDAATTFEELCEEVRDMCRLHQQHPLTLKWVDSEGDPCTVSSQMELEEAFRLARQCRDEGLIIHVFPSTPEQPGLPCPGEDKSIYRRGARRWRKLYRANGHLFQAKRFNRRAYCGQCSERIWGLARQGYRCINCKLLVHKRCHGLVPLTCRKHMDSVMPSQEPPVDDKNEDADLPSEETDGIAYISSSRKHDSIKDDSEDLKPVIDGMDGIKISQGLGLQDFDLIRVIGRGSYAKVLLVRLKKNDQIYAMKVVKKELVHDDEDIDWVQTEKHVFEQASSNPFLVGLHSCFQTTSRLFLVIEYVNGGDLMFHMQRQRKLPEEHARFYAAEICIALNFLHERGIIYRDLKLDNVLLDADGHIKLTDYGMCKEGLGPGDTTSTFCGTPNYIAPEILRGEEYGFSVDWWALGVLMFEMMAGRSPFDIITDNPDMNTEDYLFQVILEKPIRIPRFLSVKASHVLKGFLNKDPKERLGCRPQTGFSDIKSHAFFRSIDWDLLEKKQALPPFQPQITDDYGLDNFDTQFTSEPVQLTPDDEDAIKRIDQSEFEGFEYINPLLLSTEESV

[3] = tested on: NF-kB; details: mice
[4] = tested on: mutant EGFR; details: 0.01-10 uM
[5] = tested on: MERS-COV; details: in vitro
[6] = biological target: p38α MAPK (Homo sapiens, UniProt Q16539)
[7] = biological target: c-Met (Homo sapiens, UniProt P08581)
[8] = tested on: breast, prostate, colon and pancreatic carcinoma xenografts; details: in vivo
[9] = tested on: Lyn kinase; details: knockout mice
[10] = not given; remark: listed apart in the source

Chain of c-Met (P08581 25-1390): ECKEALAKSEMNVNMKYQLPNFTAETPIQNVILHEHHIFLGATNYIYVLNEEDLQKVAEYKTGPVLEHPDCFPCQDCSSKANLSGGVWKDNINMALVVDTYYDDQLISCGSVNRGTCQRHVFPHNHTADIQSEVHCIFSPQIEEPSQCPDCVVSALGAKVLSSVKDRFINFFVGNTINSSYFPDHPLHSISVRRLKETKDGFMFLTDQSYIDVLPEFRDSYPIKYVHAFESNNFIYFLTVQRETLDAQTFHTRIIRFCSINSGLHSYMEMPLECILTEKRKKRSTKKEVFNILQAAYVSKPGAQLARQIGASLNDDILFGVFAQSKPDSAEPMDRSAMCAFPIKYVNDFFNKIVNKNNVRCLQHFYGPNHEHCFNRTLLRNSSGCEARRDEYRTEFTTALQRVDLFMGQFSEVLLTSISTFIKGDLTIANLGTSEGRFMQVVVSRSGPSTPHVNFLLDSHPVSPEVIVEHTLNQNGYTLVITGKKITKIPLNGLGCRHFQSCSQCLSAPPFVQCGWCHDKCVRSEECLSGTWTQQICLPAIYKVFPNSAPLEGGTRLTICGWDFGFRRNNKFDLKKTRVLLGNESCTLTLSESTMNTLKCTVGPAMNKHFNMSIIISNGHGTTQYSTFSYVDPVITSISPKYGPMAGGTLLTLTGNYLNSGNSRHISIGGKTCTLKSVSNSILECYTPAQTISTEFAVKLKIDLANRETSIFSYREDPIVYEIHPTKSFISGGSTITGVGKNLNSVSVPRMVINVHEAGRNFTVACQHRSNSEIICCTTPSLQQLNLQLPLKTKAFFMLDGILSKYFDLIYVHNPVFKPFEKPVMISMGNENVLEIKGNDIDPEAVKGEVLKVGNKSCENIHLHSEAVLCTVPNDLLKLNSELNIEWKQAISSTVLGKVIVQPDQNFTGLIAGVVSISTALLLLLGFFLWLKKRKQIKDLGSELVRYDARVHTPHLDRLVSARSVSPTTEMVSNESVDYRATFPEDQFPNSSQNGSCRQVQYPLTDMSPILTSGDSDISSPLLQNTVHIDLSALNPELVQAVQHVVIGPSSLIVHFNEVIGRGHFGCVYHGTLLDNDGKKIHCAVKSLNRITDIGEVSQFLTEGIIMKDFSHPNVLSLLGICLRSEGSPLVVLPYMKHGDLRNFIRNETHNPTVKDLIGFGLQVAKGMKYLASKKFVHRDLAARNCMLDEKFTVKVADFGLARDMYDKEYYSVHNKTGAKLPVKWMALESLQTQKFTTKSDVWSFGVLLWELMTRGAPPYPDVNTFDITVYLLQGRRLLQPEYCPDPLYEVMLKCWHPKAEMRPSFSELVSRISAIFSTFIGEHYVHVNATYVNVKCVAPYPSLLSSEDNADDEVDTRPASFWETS
Chain of p38α MAPK (Q16539 whole entry): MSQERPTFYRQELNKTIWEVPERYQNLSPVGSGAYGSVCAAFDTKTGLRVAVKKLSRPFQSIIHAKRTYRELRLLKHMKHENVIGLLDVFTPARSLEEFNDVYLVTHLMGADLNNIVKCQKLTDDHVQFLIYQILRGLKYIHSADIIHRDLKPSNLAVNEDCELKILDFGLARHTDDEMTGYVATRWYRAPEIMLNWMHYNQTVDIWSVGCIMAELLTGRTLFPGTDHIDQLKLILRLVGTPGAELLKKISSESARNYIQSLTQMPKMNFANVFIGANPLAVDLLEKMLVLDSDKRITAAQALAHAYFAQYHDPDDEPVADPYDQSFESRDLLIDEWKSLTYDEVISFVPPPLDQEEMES

SMILES	reporter gene assay % inhibu at 5 μM [1] [%]	cell-free assay % inhibu at 62.5 μM [2] [%]	other results
CC(C)(C)C1=NN(c2ccc(Cl)cc2)C(c2ccc(O)cc2)C1 (stereo not drawn) [1a]	75.1	–	–
CC(C)(C)C1=NN(c2ccc(F)cc2)C(c2ccc(O)cc2)C1 (stereo not drawn) [1b]	63.8	95.5	–
CC(C)(C)C1=NN(c2ccc(Br)cc2)C(c2ccc(O)cc2)C1 (stereo not drawn) [1c]	58.4	93.2	–
Cc1ccc(N2N=C(C(C)(C)C)CC2c2ccc(O)cc2)cc1 (stereo not drawn) [1e]	62.9	–	–
CC(C)(C)C1=NN(c2cccc(Cl)c2)C(c2ccc(O)cc2)C1 (stereo not drawn) [1h]	64.6	96.8	–
CC(C)(C)C1=NN(c2cccc(C(F)(F)F)c2)C(c2ccc(O)cc2)C1 (stereo not drawn) [1j]	89.7	96.1	–
Cc1cccc(N2N=C(C(C)(C)C)CC2c2ccc(O)cc2)c1 (stereo not drawn) [1k]	73.7	91.7	–
Cc1ccc2nc(NCCN)c3ncc(C)n3c2c1.Cl [BMS-345541]	–	–	activity against LPS-induced NF-kB activation [3]: active
O=C(NOCC(O)CO)c1ccc(F)c(F)c1Nc1ccc(I)cc1F (stereo not drawn) [Compound 35]	–	–	Sol (pH 6.5): 255, μg/mL
O=C(Nc1nccs1)C(c1cc(F)ccc1O)N1Cc2ccc(-c3ccc(N4CCNCC4)cc3)cc2C1=O (stereo not drawn) [JBJ-04-125-02]	–	–	EGFR phosphorylation [4]: inhibited EGFR phosphorylation
CO[C@H]1C[C@@H]2CC[C@@H](C)[C@@](O)(O2)C(=O)C(=O)N2CCCC[C@H]2C(=O)O[C@H]([C@H](C)C[C@@H]2CC[C@@H](O)[C@H](OC)C2)CC(=O)[C@H](C)/C=C(\C)[C@@H](O)[C@@H](OC)C(=O)[C@H](C)C[C@H](C)/C=C/C=C/C=C/1C [Sirolimus]	–	–	MERS-COV infection of Huh7 cells [5]: inhibits MERS-COV infection
O=C1c2ccc(Nc3ccc(F)cc3F)cc2CCc2ccc(OC[C@H](O)CO)cc21 [Skepinone-B]	–	–	residence time [6]: 150 s
O=C1NC(=O)[C@@H](c2cn3c4c(cccc24)CCC3)[C@@H]1c1c[nH]c2ccccc12 [Tivantinib, tivantinib]	–	–	selectivity for c-Met over other kinases tested [7]: 10-100 time; growth of carcinoma xenografts [8]: inhibition of growth
Cc1cccc(Oc2cnc(=O)[nH]c2)c1 [Tolimidone, tolimidone]	–	–	glucose lowering when Lyn kinase was absent [9]: did not lower glucose
CC(=O)Nc1cccc(-n2c(=O)n(C3CC3)c(=O)c3c(Nc4ccc(I)cc4F)n(C)c(=O)c(C)c32)c1 [Trametinib]	–	–	Absorption/distribution of an oral dose of tablet [10]: 72%
